Measurements: paper PMC5688156, “The natural product carolacton inhibits folate-dependent C1 metabolism by targeting FolD/MTHFD” (Nature Communications, 2017)
Values joined by “and” are separate entries in the source; they are usually repeats but may differ in a detail not shown here. Equal values may be shown once. Read-outs that look alike come from different tables or passages of the source.

Key:
spFolD = molecular target: T1, spFolD (Streptococcus pneumoniae serotype 4, UniProt Q97RI9); assay: spFolD dehydrogenase (DH) enzyme assay; type: biochemical, S. pneumoniae
T1 construct: His-tag (TEV-cleavable, vector pHis-TEV); made in house; host or cells: E. coli BL21 (DE3)
Procedure: (§1) (6R,S)-5,10-Methylene-5,6,7,8-tetrahydrofolic acid ((6R,S)-5,10-CH2-THF) calcium salt and (6R,S)-5,10-Methenyl-5,6,7,8-tetrahydrofolic acid ((6R,S)-5,10-CH=THF) chloride were purchased from Schircks Laboratories (Bauma, Switzerland) and used as substrates for FolD dehydrogenase and cyclohydrolase enzyme assays, respectively. Only the R-isomer, which accounts for 50% of (6R,S)-5,10-CH2-THF and (6R,S)-5,10-CH=THF, respectively, is used by the enzyme. (6R,S)-5,10-CH2-THF was dissolved in N2-spargeled basic buffer (50 mM Tris-HCl (pH 8.0), 100 mM β-mercaptoethanol) as described by Varshney et al.[25]. (6R,S)-5,10-CH=THF was dissolved in DMSO as a 100 mM stock solution.
(§2) Because FolD is a bifunctional enzyme, dehydrogenase and cyclohydrolase activities were determined for FolD enzyme kinetics, respectively. The dehydrogenase activity of FolD was assayed for its substrate 5,10-CH2-THF and cofactor NADP^+ (in the case of MTHFD2, NAD^+ was used as the cofactor) based on monitoring the formation of 5,10-CH=THF, while the cyclohydrolase activity of FolD was determined for its substrate 5,10-CH=THF by monitoring the hydrolysis of […]. The enzyme kinetics for the dehydrogenase activity of all FolDs except hsMTHFD1_DC were determined at 30 °C in 50 mM Tris-HCl (pH 7.5), 30 mM β-mercaptoethanol. The hsMTHFD1_DC dehydrogenase activity was measured in 25 mM MOPS (pH 7.3), 30 mM β-mercaptoethanol at 30 °C. To measure the enzyme kinetic constants for 5,10-CH2-THF, for example in the case of ecFolD, the NADP concentration was fixed at 1 mM and the concentration of 5,10-CH2-THF varied from 5 to 1500 μM (R-isomer). Similarly, to measure the kinetic constants of ecFolD for NADP^+, the concentration of 5,10-CH2-THF (R-isomer) was fixed at 1 mM and the concentration of NADP^+ varied from 10 to 1500 μM. For different FolDs, the varied concentration range of substrates could be different. […] To monitor the formation of 5,10-CH=THF, the absorbance of the reaction mixture was monitored at 350 nm in micro UV cuvettes (BRAND, Essex, Connecticut, USA). The concentration of 5,10-CH=THF produced in the reaction was determined using an extinction co-efficient of 0.0249 μM^−1 cm^−1. […] The consumption of 5,10-CH=THF was measured by recording the absorbance of the reactions at 355 nm using the TECAN Infinite 200 PRO equipped with a monochromator. […] The inhibition constants (K i) of carolacton on FolD were determined by measuring the apparent K m when adding certain amounts of carolacton to the enzyme reactions. […] To compare the inhibition effects of carolacton between the different FolDs, the half maximal inhibitory concentration (IC50) of carolacton on the same amount of enzyme was determined for FolDs involved in this study. […]

ecFolD Q98H = molecular target: T2, ecFolD Q98H (Escherichia coli, UniProt P24186, Q98H); assay: SPR binding to ecFolD Q98H; parameters: species or system E. coli
T2 construct: His-tag (TEV-cleavable, vector pHis-TEV); made in house; host or cells: E. coli BL21 (DE3)
Procedure: All surface plasmon resonance (SPR) experiments described in this study were performed on a Biacore X100 system. Different FolDs with or without His-tag were coupled on CM5 sensor chips (GE Healthcare) by the amine coupling method using a kit from GE Healthcare Life Sciences (Freiburg, Germany). A pH scouting process was performed before protein immobilization to test the most appropriate buffer and the protein concentration for protein coupling. Finally, 20 μg/mL of ecFolD in 10 mM maleate buffer (pH 6.8), 30 μg/mL of ecFolD Q98H in 10 mM maleate buffer (pH 6.3), 40 μg/mL of ecFolD K54N in 10 mM maleate buffer (pH 5.8), 20 μg/mL of spFolD in 10 mM maleate buffer (pH 6.0) and 15 μg/mL of MTHFD2 (His-tag cleaved) in 10 mM maleate buffer (pH 6.8) were used for coupling. In the protein immobilization procedure, the contact time was calculated based on the pH scouting results to achieve ~3000–5000 relative resonance units (RU). The buffer used in the SPR assays was 1× HBS-P buffer (10 mM HEPES pH 7.4, 150 mM NaCl, 0.05% Tween 20). The 1 mM stock solution of carolacton was prepared in 1× HBS-P buffer and diluted to different concentration ranges by two-fold serial dilution. In the SPR assay, the association time was 180 s and the dissociation time was 600 s. Data analysis was performed using the Biacore evaluation software. […]

ecFolD = molecular target: T3, ecFolD (Escherichia coli, UniProt P24186); assay: ecFolD dehydrogenase (DH) enzyme assay; type: biochemical, E. coli; conditions: for Ki: carolacton inhibition on DH activity, from apparent KM
T3 construct: His-tag (TEV-cleavable, vector pHis-TEV); made in house; host or cells: E. coli BL21 (DE3)
Procedure: as §1, §2

T1 sequence (Q97RI9 whole entry): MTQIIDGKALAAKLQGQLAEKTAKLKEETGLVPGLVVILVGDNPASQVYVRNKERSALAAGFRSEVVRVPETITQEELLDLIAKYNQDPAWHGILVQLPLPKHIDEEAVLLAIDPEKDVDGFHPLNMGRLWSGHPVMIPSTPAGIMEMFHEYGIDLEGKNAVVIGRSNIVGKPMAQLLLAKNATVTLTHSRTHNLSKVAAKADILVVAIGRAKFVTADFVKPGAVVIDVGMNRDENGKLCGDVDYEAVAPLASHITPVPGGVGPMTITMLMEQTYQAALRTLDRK

## CO[C@H](CC(=O)O)[C@@H](C)C(=O)[C@H](C)/C=C(\C)[C@H]1OC(=O)[C@H](O)[C@H](O)/C=C/[C@H](C)CCC[C@@H]1C [carolacton]
spFolD; 10 nM enzyme, read-out: IC50, carolacton inhibition on DH activity
  IC50: 36.8 nM
spFolD; 10 nM enzyme, read-out: IC80, carolacton inhibition on DH activity
  IC80: 169 nM
spFolD; vs 5,10-CH2-THF, read-out: Ki (5,10-CH2-THF), carolacton inhibition on DH activity
  Ki: 42.2 nM
spFolD; vs NADP+, read-out: Ki (NADP+), carolacton inhibition on DH activity
  Ki: 34.2 nM
ecFolD Q98H
  Kd: 20000 nM
  koff: 0.608 s⁻¹
ecFolD
  IC50: 15.5 nM
ecFolD; Ki (5,10-CH2-THF), competitive vs substrate 5,10-CH2-THF
  Ki: 21 nM and 21.3 nM
ecFolD; Ki (NADP+), competitive vs cofactor NADP+
  Ki: 11 nM and 10.9 nM
ecFolD; read-out: IC80, carolacton inhibition on DH activity
  IC80: 52.2 nM
